Experiments:
[1] = system: Kloeckera sp. Strain A2 (NRRLY-11,420); experiment: Oxidation of sec-alcohols to ketones by cell suspensions of yeasts; format: cell-based; conditions: sec-alcohol to methyl ketone
[2] = system: Methylobacterium organophilum (CRL 26 R6) NRRL B-11,222; experiment: Oxidation by washed cell suspensions of methane-grown cells; format: cell-based; conditions: methane-grown cells; isopropanol to acetone, 2-butanol to 2-butanone
In short: (§1)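 Cells grown 2 days at 30 °C under methane/air 1:1 (pH 7.0 medium), washed and resuspended in 0.15 M phosphate pH 7.0. Suspension (2 mg cells) incubated at 30 °C, 300 rpm under substrate/O2 1:1 (liquid substrates 10 μl); products measured periodically by GC with flame ionization detection.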

[3] = system: Methylomonas rubrum (CRL M6P) NRRL B-11,210; experiment: as above; format: cell-based; conditions: methane-grown cells; isopropanol to acetone
In short: as §1

[4] = system: Methylosinus trichosporium (CRL 15 PM1) NRRL B-11,202; experiment: as above; format: cell-based; conditions: methane-grown cells; isopropanol to acetone, 2-butanol to 2-butanone
In short: as §1

[5] = system: Methylobacter chroococcum (CRL M6) NRRL B-11,214; experiment: as above; format: cell-based; conditions: methane-grown cells; isopropanol to acetone, 2-butanol to 2-butanone
In short: as §1

[6] = system: Methylococcus capsulatus (CRL M1) NRRL B-11,219; experiment: as above; format: cell-based; conditions: methane-grown cells; isopropanol to acetone, 2-butanol to 2-butanone
In short: as §1

[7] = system: cell extract of Hansenula polymorpha ATCC 26,012; experiment: Oxidation of secondary alcohols to methylketone by cell extracts of yeasts; format: biochemical; conditions: methanol-grown; cell extract + NAD^+; sec. alcohol to methyl ketone; gas chromatography
[8] = system: cell extract of Candida utilis ATCC 26,387; experiment: as above; format: biochemical; conditions: methanol-grown; cell extract + NAD^+; sec. alcohol to methyl ketone; gas chromatography
[9] = system: Methylobacter bovis (CRL M1Y) NRRL B-11,216; experiment: Oxidation by washed cell suspensions of methane-grown cells; format: cell-based; conditions: methane-grown cells; isopropanol to acetone, 2-butanol to 2-butanone
Description: The pH of the nutrient medium was adjusted to 7.0 by the addition of acid or base and 50 ml samples of the nutrient medium were charged into a plurality of 300 ml shaker flasks. The shaker flasks were inoculated with an inoculating loop of cells from an agar plate containing homogeneous colonies of the microorganisms on the plate (the purity of the isolates was confirmed by microscopic examination. The isolates had been maintained on agar plates under an atmosphere of methane and air having a 1:1 v/v gas ratio which had been transferred evey two weeks. The gaseous phase of the inoculated flasks was then replaced with a gas mixture comprised of methane and air having a ratio of 1:1 on a v/v basis. […]
The cells were harvested by centrifugation at 10,000×g. at 4° C. for 30 minutes. The cell pellet was washed twice with a 0.15 M phosphate buffer at a pH of 7.0 (containing 0.002 M MgCl2). The washed cells were then suspended in a 0.15 M phosphate buffer at pH 7.0.
A 0.5 ml sample of each washed cell suspension (2 mg cells) was put into 10 ml vials at 4° C. which were sealed with a rubber cap. The gaseous phase of the vials was removed with vacuum and then was replaced with a gas mixture of the oxidative substrate (e.g., methane) and oxygen at a 1:1 v/v ratio. The vials were then incubated at 30 ° C. on a rotary shaker at 300 rpm. Samples of product (3 μl) were withdrawn periodically with a microsyringe and the products were analyzed by gas chromatography (ionization flame detector column).
The newly discovered and isolated microorganism strains of the present invention were each grown aerobically in the presence of methane in the manner described above. The methane-grown microbial cells were then washed, recovered and put to use in oxidizing an oxidative substrate by the procedure described above except in the case of a liquid substrate 10 μl of the substrate were used.

[10] = system: Torulopsis sp. Strain A1 (NRRLY-11,419); experiment: Oxidation of sec-alcohols to ketones by cell suspensions of yeasts; format: cell-based; conditions: sec-alcohol to methyl ketone
[11] = system: Methylococcus capsulatus CRL 25 NRRL B-11,221; experiment: Sec. alcohol oxidation by cell suspensions of methanol-grown cells; format: cell-based; conditions: sec. alcohol to methyl ketone
Excerpt: (§2) In this example, the procedure of Example 1 was repeated except that a plurality of the methane-utilizing methylotrophic microorganisms of the invention were each aerobically grown in a methanol-containing nutrient medium instead of a methane-containing medium. The nutrients in the medium were the same as indicated in Example 1 except that 0.4% v/v methanol was used as the alcohol dehydrogenase enzyme inducer and major source of carbon and energy for growth. Following growth the cells were harvested and washed as described in Example 1. The resting cells of the induced methanol-grown methylotrophic microorganisms were then contacted with a […] under aerobic conditions in a buffered solution by the procedure described in Example 1.

[12] = system: Methylosinus trichosporium CRL 15 NRRL B-11,202; experiment: as above; format: cell-based; conditions: sec. alcohol to methyl ketone
Excerpt: as §2

[13] = system: Methylococcus capsulatus CRL M1 NRRL B-11,219; experiment: as above; format: cell-based; conditions: sec. alcohol to methyl ketone
Excerpt: as §2

[14] = system: Methylobacter chroococcum CRL M6 NRRL B-11,214; experiment: as above; format: cell-based; conditions: sec. alcohol to methyl ketone
Excerpt: as §2

[15] = system: Methylobacterium organophilum CRL 26 NRRL B-11,222; experiment: as above; format: cell-based; conditions: sec. alcohol to methyl ketone
Excerpt: as §2

[16] = system: Methylomonas methanica CRL M4P NRRL B-11,205; experiment: as above; format: cell-based; conditions: sec. alcohol to methyl ketone
Excerpt: as §2

[17] = system: Methylobacter vinelandii CRL M5Y NRRL B-11,218; experiment: as above; format: cell-based; conditions: sec. alcohol to methyl ketone
Excerpt: as §2

[18] = system: Methylomonas streptobacterium CRL 17 PM3 NRRL B-11,208; experiment: as above; format: cell-based; conditions: sec. alcohol to methyl ketone
Excerpt: as §2

[19] = system: Methylobacter bovis CRL 19 NRRL B-11,217; experiment: as above; format: cell-based; conditions: sec. alcohol to methyl ketone
Excerpt: as §2

[20] = system: Methylocystis parvus CRL 18 NRRL B-11,204; experiment: as above; format: cell-based; conditions: sec. alcohol to methyl ketone
Excerpt: as §2

[21] = system: cell extract of Kloeckera sp. strain A2 NRRL-Y-11,420; experiment: Oxidation of secondary alcohols to methylketone by cell extracts of yeasts; format: biochemical; conditions: methanol-grown; cell extract + NAD^+; sec. alcohol to methyl ketone; gas chromatography
[22] = system: cell extract of Pichia sp. NRRL-Y-11,328; experiment: as above; format: biochemical; conditions: methanol-grown; cell extract + NAD^+; sec. alcohol to methyl ketone; gas chromatography
[23] = system: purified secondary alcohol dehydrogenase from Pichia sp. NRRL Y-11,328; experiment: Substrate specificity, electron acceptor and stoichiometry of purified yeast SADH; format: biochemical; conditions: examined spectrophotometrically
[24] = system: Candida utilis ATCC 26387; experiment: Oxidation of sec-alcohols to ketones by cell suspensions of yeasts; format: cell-based; conditions: sec-alcohol to methyl ketone
[25] = system: purified secondary alcohol dehydrogenase (SADH) from Pseudomonas sp. ATCC 21439; experiment: Kinetics and substrate specificity of purified SADH; format: biochemical; conditions: 2-butanol = 100%
[26] = system: cell extract of Torulopsis sp. strain A1 NRRL-Y-11,419; experiment: Oxidation of secondary alcohols to methylketone by cell extracts of yeasts; format: biochemical; conditions: methanol-grown; cell extract + NAD^+; sec. alcohol to methyl ketone; gas chromatography
[27] = system: Pichia sp. NRRL-Y-11328; experiment: Oxidation of sec-alcohols to ketones by cell suspensions of yeasts; format: cell-based; conditions: sec-alcohol to methyl ketone
[28] = system: Hansenula polymorpha ATCC 26012; experiment: as above; format: cell-based; conditions: sec-alcohol to methyl ketone

CC(C)O [Isopropanol]
Conversion Rate ([1]; growth substrate Ethanol): 4.5 μmoles/hr/mg of protein
Conversion Rate ([1]; growth substrate Methanol): 4.8 μmoles/hr/mg of protein
Conversion Rate ([1]; growth substrate Methylamine): 4.0 μmoles/hr/mg of protein
Conversion Rate ([1]; growth substrate Methylformate): 4.9 μmoles/hr/mg of protein
Conversion Rate ([1]; growth substrate Propylamine): 4.0 μmoles/hr/mg of protein
Conversion Rate to Ketone, 2 hrs. [2]: 3 μmole/2 mg protein
Conversion Rate to Ketone, 2 hrs. [3]: 1 μmole/2 mg protein
Conversion Rate to Ketone, 2 hrs. [4]: 3 μmole/2 mg protein
Conversion Rate to Ketone, 2 hrs. [5]: 1 μmole/2 mg protein
Conversion Rate to Ketone, 20 hrs. [5]: 8 μmole/2 mg protein
Conversion Rate to Ketone, 2 hrs. [6]: 3 μmole/2 mg protein
Conversion Rate to Ketone, 20 hrs. [6]: 15 μmole/2 mg protein
Conversion Rate [7]: 4.8 μmoles/hr/mg Protein
Conversion Rate [8]: 4.5 μmoles/hr/mg Protein
Conversion Rate to Ketone, 2 hrs. [9]: 5 μmole/2 mg protein
Conversion Rate ([10]; growth substrate Ethanol): 4.2 μmoles/hr/mg of protein
Conversion Rate ([10]; growth substrate Methanol): 4.5 μmoles/hr/mg of protein
Conversion Rate ([10]; growth substrate Methylamine): 4.3 μmoles/hr/mg of protein
Conversion Rate ([10]; growth substrate Methylformate): 4.5 μmoles/hr/mg of protein
Conversion Rate ([10]; growth substrate Propylamine): 3.2 μmoles/hr/mg of protein
Conversion Rates [11]: 0.62 μmoles/hr/mg protein
Conversion Rates [12]: 0.50 μmoles/hr/mg protein
Conversion Rates [13]: 5.0 μmoles/hr/mg protein
Conversion Rates [14]: 1.0 μmoles/hr/mg protein
Conversion Rates [15]: 0.72 μmoles/hr/mg protein
Conversion Rates [16]: 2.0 μmoles/hr/mg protein
Conversion Rates [17]: 2.0 μmoles/hr/mg protein
Conversion Rates [18]: 0.67 μmoles/hr/mg protein
Conversion Rates [19]: 0.40 μmoles/hr/mg protein
Conversion Rates [20]: 0.25 μmoles/hr/mg protein
Conversion Rate [21]: 4.8 μmoles/hr/mg Protein
Conversion Rate [22]: 5.5 μmoles/hr/mg Protein
oxidation by the purified enzyme [23]: catalyzed the oxidation
Conversion Rate ([24]; growth substrate Ethanol): 5.2 μmoles/hr/mg of protein
Conversion Rate ([24]; growth substrate Methanol): 6.2 μmoles/hr/mg of protein
Conversion Rate ([24]; growth substrate Methylamine): 5.0 μmoles/hr/mg of protein
Conversion Rate ([24]; growth substrate Methylformate): 5.6 μmoles/hr/mg of protein
Conversion Rate ([24]; growth substrate Propylamine): 4.2 μmoles/hr/mg of protein
relative percent rate of oxidation [25]: 85%
Conversion Rate [26]: 4.5 μmoles/hr/mg Protein
Conversion Rate ([27]; growth substrate Ethanol): 4.5 μmoles/hr/mg of protein
Conversion Rate ([27]; growth substrate Methanol): 5.2 μmoles/hr/mg of protein
Conversion Rate ([27]; growth substrate Methylamine): 4.2 μmoles/hr/mg of protein
Conversion Rate ([27]; growth substrate Methylformate): 4.9 μmoles/hr/mg of protein
Conversion Rate ([27]; growth substrate Propylamine): 3.2 μmoles/hr/mg of protein
Conversion Rate ([28]; growth substrate Ethanol): 5.0 μmoles/hr/mg of protein
Conversion Rate ([28]; growth substrate Methanol): 5.9 μmoles/hr/mg of protein
Conversion Rate ([28]; growth substrate Methylamine): 5.2 μmoles/hr/mg of protein
Conversion Rate ([28]; growth substrate Methylformate): 5.6 μmoles/hr/mg of protein
Conversion Rate ([28]; growth substrate Propylamine): 4.1 μmoles/hr/mg of protein

Source: patent US4347319A, “Microbiological epoxidation process” (priority 1980, dated 1982)
